Tested on: THP-1 cells
Test: Flow cytometric cell cycle analysis (PI), THP-1
Format: cell-based, human
Description: In order to determine at which stage of the cell cycle these compounds induce cell growth inhibition, flow cytometric analyses of cell cycle profiles in THP-1 and MCF-7 cell lines were performed. […] Therefore, THP-1 and MCF-7 cells were treated for 24 h with the compounds at concentrations of 2.5, 5, and 10 μM, respectively. In general, we detected a qualitatively similar effect on the distribution of cells in cell cycle phases following the treatment with compounds 2 and 6 in both leukaemia and breast carcinoma cells. […] This was in concert with a simultaneous decrease in the number of cells observed in the S phase compared to the drug-free control, while the percentage of cells in the G2/M phase remained unchanged.
THP-1 and sub-confluent MCF-7 cells were treated and subsequently incubated with indicated concentrations of compounds 2 and 6 for 24 h. After the incubation, cells were washed twice in PBS (pH 7.4), fixed in 70% ethanol and stored at −20 °C overnight. Fixed cells were collected by centrifugation, and supernatant was discarded. The cell pellet was washed twice with PBS and incubated with RNaseA (0.02 mg/mL) and 0.05% (v/v) Triton X-100 in PBS for 30 min at 37 °C. After the nuclei staining with propidium iodide (PI) (0.04 mg/mL), the cell cycle distribution was analysed using a flow cytometer Cell Lab Quanta SC (Beckman Coulter, Brea, CA, USA). The quantification of cell cycle distribution was carried out using software MultiCycle AV (Phoenix Flow System, San Diego, CA, USA). A total number of 2 × 10^4 cells was analysed per sample.

O=C(Nc1cccc([N+](=O)[O-])c1)c1cc2ccccc2cc1O [Compound 2, 3-hydroxy-N-(3-nitrophenyl)naphthalene-2-carboxamide]
increase of sub-G1 peak compared to drug-free control (THP-1, 5 µM, 24 h, p < 0.001): approximately eight-fold | distribution of cells in cell cycle phases (THP-1, 24 h): induced accumulation of cells in G1 phase

From PMC5000617, “Antiproliferative and Pro-Apoptotic Effect of Novel Nitro-Substituted Hydroxynaphthanilides on Human Cancer Cell Lines” (International Journal of Molecular Sciences, 2016)
